Laboratory results taken from publication PMC5983452 (PLoS ONE, 2018).
Where a name gives a salt, the structure may show the parent alone. Read-outs that look alike come from different tables or passages of the source.

Test system: panel of 240 cancer cell lines
Experiment: Proliferation in a broad panel of 240 cancer cell lines, 2D culture (Eurofins Panlabs Oncopanel)
Format: cell-based
Procedure: Cell lines used in these experiments were obtained from the following sources and were cultured according to conditions specified by the respective cell banks. […] The cell lines listed above were tested for mycoplasma and were negative. Cells were authenticated by STR method or vendor protocols. All 313 cell lines in the CRIPSR pooled screen were purchased from commercial vendors and were STR authenticated and mycoplasma negative. A broad panel of cancer cell lines was screened in the Eurofins Oncopanel. All cells in this panel were mycoplasma negative and STR verified.

Measured: IC50

NC1CCC(S(=O)(=O)N2C3CCC2CC(NC(=O)c2cc(C4CC4)on2)C3)CC1 [EPZ028862, N-((1R,3R,5S)-8-((1r,4R)-4-aminocyclohexylsulfonyl)-8-aza-bicyclo[3.2.1]octan-3-yl)-5-cyclopropylisoxazole-3-carboxamide hydrochloride]
> 25 µM: Homo sapiens, LS174T, LS-174T, Colon/GI, read-out: IC50 | Homo sapiens, LS-1034, LS1034, Colon/GI, read-out: IC50 | Homo sapiens, MC-IXC, CNS, read-out: IC50 | Homo sapiens, MCF7, MCF7, Breast, read-out: IC50 | Homo sapiens, MDA-MB-231, MDA MB 231, Breast, read-out: IC50 | Homo sapiens, MDA-MB-436, MDA-MB-436, Breast, read-out: IC50 | Homo sapiens, MDA-MB-453, MDA MB 453, Breast, read-out: IC50 | Homo sapiens, MDA-MB-468, MDA MB 468, Breast, read-out: IC50 | Homo sapiens, MEG-01, MEG01, Haematopoietic and lymphoid, read-out: IC50 | Homo sapiens, MES-SA, Soft Tissue, read-out: IC50 | Homo sapiens, MG-63, MG-63, Soft Tissue, read-out: IC50 | Homo sapiens, MHH-PREB-1, MHH-PREB-1, Haematopoietic and lymphoid, read-out: IC50 | Homo sapiens, MIA PaCa-2, Mia PaCa-2, Pancreas, read-out: IC50 | Homo sapiens, MOLT-3, MOLT-3, Haematopoietic and lymphoid, read-out: IC50 | Homo sapiens, MOLT-16, MOLT-16, Haematopoietic and lymphoid, read-out: IC50 | Homo sapiens, MV4-11, MV-4-11, Haematopoietic and lymphoid, read-out: IC50 | Homo sapiens, Malme-3M, MALME3M, Skin, read-out: IC50 | Homo sapiens, MeWo, Skin, read-out: IC50 | Homo sapiens, NALM-6, NALM-6, Haematopoietic and lymphoid, read-out: IC50 | Homo sapiens, NCI-H69, NCI-H69, Lung, read-out: IC50 | Homo sapiens, NCI-H292, NCI-H292, Lung, read-out: IC50 | Homo sapiens, NCI-H295R, Endocrine, read-out: IC50 | Homo sapiens, NCI-H441, NCIH441, Lung, read-out: IC50 | Homo sapiens, NCI-H446, NCIH446, Lung, read-out: IC50 | Homo sapiens, NCI-H460, NCI-H460, Lung, read-out: IC50 | Homo sapiens, NCI-H508, NCI-H508, Colon/GI, read-out: IC50 | Homo sapiens, NCI-H520, NCI-H520, Lung, read-out: IC50 | Homo sapiens, NCI-H596, NCI-H596, Lung, read-out: IC50 | Homo sapiens, NCI-H661, NCI-H661, Lung, read-out: IC50 | Homo sapiens, NCI-H747, NCI-H747, Colon/GI, read-out: IC50 | Homo sapiens, OE19, OE19, Head and Neck, read-out: IC50 | Homo sapiens, OE33, OE33, Head and Neck, read-out: IC50 | Homo sapiens, OVCAR-3, OVCAR3, Female GU, read-out: IC50 | Homo sapiens, PANC-1, PANC-1, Pancreas, read-out: IC50 | Homo sapiens, RKOE6, RKOE6, Colon/GI, read-out: IC50 | Homo sapiens, RL95-2, RL95-2, Female GU, read-out: IC50 | Homo sapiens, RPMI-6666, RPMI 6666, Haematopoietic and lymphoid, read-out: IC50 | Homo sapiens, RPMI-7951, RPMI-7951, Skin, read-out: IC50 | Homo sapiens, RPMI-8226, RPMI 8226, Haematopoietic and lymphoid, read-out: IC50 | Homo sapiens, Raji, Haematopoietic and lymphoid, read-out: IC50 | Homo sapiens, Ramos, Ramos (RA 1), Haematopoietic and lymphoid, read-out: IC50 | Homo sapiens, SAOS-2, SaOS2, Soft Tissue, read-out: IC50 | Homo sapiens, SCC-4, SCC-4, Head and Neck, read-out: IC50 | Homo sapiens, SCC-9, SCC-9, Head and Neck, read-out: IC50 | Homo sapiens, SCC-25, SCC-25, Head and Neck, read-out: IC50 | Homo sapiens, SCaBER, Bladder, read-out: IC50 | Homo sapiens, SHP77, SHP-77, Lung, read-out: IC50 | Homo sapiens, SJRH30, SJRH30, Soft Tissue, read-out: IC50 | Homo sapiens, SJSA-1, SJSA1, Soft Tissue, read-out: IC50 | Homo sapiens, SK-BR-3, SK-BR-3, Breast, read-out: IC50 | Homo sapiens, SK-LMS-1, SK-LMS-1, Soft Tissue, read-out: IC50 | Homo sapiens, SK-MEL3, SK-MEL-3, Skin, read-out: IC50 | Homo sapiens, SK-MEL-1, SK-MEL-1, Skin, read-out: IC50 | Homo sapiens, SK-MEL-28, SK-MEL-28, Skin, read-out: IC50 | Homo sapiens, SK-MES-1, SKMES1, Lung, read-out: IC50 | Homo sapiens, SK-N-AS, CNS, read-out: IC50 | Homo sapiens, SK-N-DZ, CNS, read-out: IC50 | Homo sapiens, SK-N-FI, CNS, read-out: IC50 | Homo sapiens, SK-NEP-1, SK-NEP-1, Kidney, read-out: IC50 | Homo sapiens, SK-OV-3, SKOV3, Female GU, read-out: IC50 | Homo sapiens, SK-UT-1, SK-UT-1, Soft Tissue, read-out: IC50 | Homo sapiens, SNB-19, SNB-19, CNS, read-out: IC50 | Homo sapiens, SNU1, SNU-1, Colon/GI, read-out: IC50 | Homo sapiens, SNU-5, SNU-5, Colon/GI, read-out: IC50 | Homo sapiens, SNU-16, SNU-16, Colon/GI, read-out: IC50 | Homo sapiens, SNU-423, SNU-423, Liver, read-out: IC50 | Homo sapiens, ST486, ST486, Haematopoietic and lymphoid, read-out: IC50 | Homo sapiens, SU.86.86, SU.86.86, Pancreas, read-out: IC50 | Homo sapiens, SW13, SW-13, Endocrine, read-out: IC50 | Homo sapiens, SW48, SW48, Colon/GI, read-out: IC50 | Homo sapiens, SW480, SW480, Colon/GI, read-out: IC50 | Homo sapiens, SW684, SW684, Soft Tissue, read-out: IC50 | Homo sapiens, SW837, SW837, Colon/GI, read-out: IC50 | Homo sapiens, SW872, SW872, Soft Tissue, read-out: IC50 | Homo sapiens, SW900, SW900, Lung, read-out: IC50 | Homo sapiens, SW948, SW948, Colon/GI, read-out: IC50 | Homo sapiens, SW 954, SW954, Female GU, read-out: IC50 | Homo sapiens, SW 962, SW962, Female GU, read-out: IC50 | Homo sapiens, SW982, SW982, Soft Tissue, read-out: IC50 | Homo sapiens, SW1088, SW1088, CNS, read-out: IC50 | Homo sapiens, SW1353, SW1353, Soft Tissue, read-out: IC50 | Homo sapiens, SW1417, SW1417, Colon/GI, read-out: IC50 | Homo sapiens, SW1463, SW1463, Colon/GI, read-out: IC50 | Homo sapiens, SW1783, SW1783, CNS, read-out: IC50 | Homo sapiens, SW-403, SW403, Colon/GI, read-out: IC50 | Homo sapiens, SW-620, SW620, Colon/GI, read-out: IC50 | Homo sapiens, SiHa, Female GU, read-out: IC50 | Homo sapiens, T47D, Breast, read-out: IC50 | Homo sapiens, T98G, CNS, read-out: IC50 | Homo sapiens, TCC-SUP, TCCSUP, Bladder, read-out: IC50 | Homo sapiens, THP-1, Thp1, Haematopoietic and lymphoid, read-out: IC50 | Homo sapiens, U2OS, Soft Tissue, read-out: IC50 | Homo sapiens, U138-MG, U-138MG, CNS, read-out: IC50 | Homo sapiens, U-87 MG, CNS, read-out: IC50 | Homo sapiens, UMUC3, UM-UC-3, Bladder, read-out: IC50 | Homo sapiens, WI-38, Wi38, Lung, read-out: IC50 | Homo sapiens, WiDr, Colon/GI, read-out: IC50 | Homo sapiens, YAPC, Pancreas, read-out: IC50 | Hs766T, Hs 766T, Pancreas, read-out: IC50 | J82, Bladder, read-out: IC50 | JAR, Female GU, read-out: IC50 | KHOS-240S, Soft Tissue, read-out: IC50 | KLE, Female GU, read-out: IC50 | KPL-1, KPL-1, Breast, read-out: IC50 | MT-3, Breast, read-out: IC50 | MX1, Haematopoietic and lymphoid, read-out: IC50 | OCUG-1, OCUG-1, Liver, read-out: IC50 | OE21, OE21, Head and Neck, read-out: IC50 | PC-3, Prostate, read-out: IC50 | RD, Soft Tissue, read-out: IC50 | RKO, Colon/GI, read-out: IC50 | RKOAS451, RKO-AS45-1, Colon/GI, read-out: IC50 | SH-4, Skin, read-out: IC50 | SKO-007, SKO-007, Haematopoietic and lymphoid, read-out: IC50 | SR, Haematopoietic and lymphoid, read-out: IC50 | SW579, SW579, Endocrine, read-out: IC50 | T24, Bladder, read-out: IC50 | TE 381.T, Soft Tissue, read-out: IC50 | U266B1, Haematopoietic and lymphoid, read-out: IC50 | Y79, Eye-retinoblastoma, read-out: IC50 | read-out: anti-proliferative IC50 across the panel of 240 cancer cell lines, 2D culture
